Data on 2 molecules can be found in patent publication EP2605769B1, “BENZOQUINONE DERIVATIVES FOR THE TREATMENT OF MITCHONDRIAL EYE DISEASES” (Santhera Pharmaceuticals (Schweiz) AG, priority 2010, dated 2012).

The nature of data set [1]: Cytotoxicity assay (WST-1). The settings on record: human, hepg2 cells, Hep-G2 cells, 24 hours exposure, read-out: TC50. It is filed as cell-based, human. The text has this: This assay investigates cytotoxicity which is defined as the cell-killing property of a chemical compound, independent from the mechanisms of cell death. The HepG2 hepatoblastoma cell line is one of the most common human cell lines for hepatotoxicity studies. […] This assay measures metabolic activity of living cells using the WST-1 cell proliferation reagent (Roche Diagnostics). The tetrazolium salt WST-1 is cleaved to water soluble formazan by cellular enzymes. An expansion in the number of viable cells results in an increase in the overall activity of mitochondrial dehydrogenases in the sample. This augmentation in enzyme activity leads to an increase in the amount of formazan dye formed, which directly correlates to the number of metabolically active cells in the culture. The formazan dye produced by metabolically active cells is directly quantified in a scanning multiwell spectrophotometer by measuring the absorbance of the formazan dye solution between 420 and 480 nm. Healthy HepG2 cells, when maintained in culture, continuously divide and multiply over time. A toxic chemical, regardless of site and mechanism of action, will interfere with this process and result in the reduction of the growth rate reflected in the cell number.
Experimental Procedure: Hep-G2 cells are seeded into a 96-well microplate and maintained in culture for 24 hours. They are then exposed to the test compound over a range of eight concentrations. After 24 hours exposure, the cells are incubated in presence of reagent WST-1 for 30 min before measuring the absorbance of the formazan dye formed. Cytotoxicity is expressed as a concentration dependent reduction of the conversion formazan dye formation due to a decrease in cell proliferation as compared to untreated cells. The TC50 (Toxic Concentration 50%), is defined as the concentration of tested compound required to reduce the cellular viability by 50% relative to the control culture. The lower the TC50 value, the higher is the cytotoxic potential of the test compound. […]

Data set [2] is described as follows: Pharmacokinetic analysis in plasma and eye fluids after oral administration. The settings on record: for Kp: single oral 400 mg/kg; for AUC(0-t): read-out: AUC0-6h. The format is in vivo, mice. On the procedure: Pharmacokinetic analysis of test compounds after oral administration aims to determine its bioavailability and clearance in the plasma and in the eye fluids (aqueous and vitreous humor). The test compounds are quantified in the plasma and in the aqueous and vitreous humor after acute and repeated treatment (with different routes of administration). The time-dependent concentration is then determined and pharmacokinetic parameters (Cmax, AUC0-t, tmax) are calculated.
Experimental procedure: Male wild-type C57BL/6J mice (7 weeks old, about 25 g body weight) are individually housed in Makrolon type II cages with standard bedding and free access to food and water under a regular 12-hours light-dark cycle (8 a.m. to 8 p.m.). Mice receive single or daily repeated oral doses of the test compounds (ranging from 20 to 2000 mg/kg of body weight) or the vehicle administered though the diet or by gavage at the end of the light phase. The treatment can be followed by a washout period. Samples for pharmacokinetic analysis are taken at different time intervals following compound administration. Mice are anesthetized by 5% isofluran inhalation in an induction chamber and sacrificed by cervical dislocation. Blood is collected from the head cut for plasma extraction. Eye balls are dissected out to collect aqueous and vitreous humor. Samples are snap frozen in liquid nitrogen and stored (-80°C) until analyzed by LC-MS/MS and accordingly to standardized procedures. All mouse procedures are performed in accordance with the Swiss regulation and under a license approved by the "Kantonales Veterinäramt Basel-Land".
The pharmacokinetic profile of idebenone (compound IA) was assessed, following a single oral gavage dose to male mice. […] Furthermore, the ratio (vitreous humor /plasma and aqueous humor/plasma) appeared to be independent of the time post dose, consistent with a lack of accumulation of idebenone in the eye. The overall extent of exposure to idebenone in the vitreous humor, as measured by AUC0-6h, represented about 2 % of that observed in plasma (vitreous/plasma ratio; Table 8). Similarly, the extent of exposure to idebenone in the aqueous humor represented about 3 % of that observed in plasma (aqueous/plasma ratio; Table 8).

Where [3] appears, read: C57BL/6J, mouse, Aqueous Humor, single oral administration at 400 mg/kg, male mice.
Where [4] appears, read: C57BL/6J, mouse, Plasma, single oral administration at 400 mg/kg, male mice.
Where [5] appears, read: C57BL/6J, mouse, Vitreous Humor, single oral administration at 400 mg/kg, male mice.

Each structure is given as a SMILES string. Where two headings read alike, the source gives them in different places.

With `COC1=C(OC)C(=O)C(CCCCCCCCCC(C)(C)O)=C(C)C1=O` [Compound IC], the CC50 at 24 h in data set [1] came to 71.9 µM.

For the molecule `COC1=C(OC)C(=O)C(CCCCCCCCCCO)=C(C)C1=O` [Compound IA, Idebenone], the Kp in data set [2] (C57BL/6J, mouse, aqueous humor / plasma, male mice, read-out: extent of exposure in the aqueous humor relative to plasma) is roughly 0.03. Besides, the Kp in data set [2] (C57BL/6J, mouse, vitreous humor / plasma, male mice, read-out: extent of exposure in the vitreous humor (AUC0-6h) relative to plasma) is roughly 0.02. In addition, in data set [2] (setting [3]), the highest level (Cmax) was 86.2 ng/mL; the Tmax – broadly, the time at which the peak concentration occurs – was 15 min; the AUC(0-t) stood at 62.6 ng·h/mL. In addition, in data set [2] (setting [4]), the AUC(0-inf) (in general, the area under the concentration-time curve extrapolated to infinity) was 1960 ng·h/mL; the Cmax (in general, the highest concentration seen after dosing) stood at 1070 ng/mL; the Tmax stood at 15 min; the half-life (commonly how long it takes for the measured level to halve) was 102 min. Further, the AUC(0-t) in data set [2] (setting [4]) came to 1860 ng·h/mL. Besides, in data set [2] (setting [5]), the peak level (Cmax) was 37.9 ng/mL, the Tmax is 15 min and the AUC(0-t) turned out to be 38.1 ng·h/mL. The same molecule yielded a λz in data set [2] (Plasma, single oral administration at 400 mg/kg, male mice) of 0.409 h⁻¹. The “time of maximum in vitreous and aqueous humors (up-take into the eye)” value in data set [2] (oral dietary or gavage administration, mouse, post-dose) was less than 15 min. Moreover, the “time of maximum concentration in plasma, vitreous and aqueous humors” value in data set [2] (single oral dose of 400 mg/kg, first sampling time post-dose) was determined as 15 min.
